Laboratory results as given in ChEMBL document CHEMBL1133206, “Antifungal rapamycin analogues with reduced immunosuppressive activity” (Bioorg Med Chem Lett, 2000).
Values after ≈ are worked out from the molar mass of the structure shown.

Columns and labels:
Aspergillus niger = experiment: In vitro antifungal activity at a minimum inhibitory concentration (~100 ug/mL) against Aspergillus niger; Not affected; type: functional; conditions: Aspergillus niger; read-out: MIC
Candida albicans [1] = experiment: In vitro antifungal activity against Candida albicans (CA 10231); type: functional
Pichia kudriavzevii = experiment: In vitro antifungal activity against Candida krusei (CK 28838); type: functional
Candida albicans [2] = experiment: In vitro antifungal activity against Candida albicans (CA 38247); Weak; type: functional, organism-based
Candida albicans [3] = experiment: In vitro antifungal activity against Candida albicans (CA 442); Weak; type: functional, organism-based
Candida albicans [4] = experiment: In vitro for antifungal activity against Candida albicans (CA 579a); type: functional
Candida albicans [5] = experiment: In vitro antifungal activity against Candida albicans (CA 62376); Weak; type: functional, organism-based
Candida albicans [6] = experiment: In vitro antifungal activity against […] (CA 34140); Not affected.; type: functional
Candida tropicalis = experiment: In vitro antifungal activity against Candida tropicalis (CT 750); type: functional
Homo sapiens = species: Homo sapiens; experiment: Inhibitory activity against human concanavalin-A proliferation assay; type: functional
Nakaseomyces glabratus = experiment: In vitro antifungal activity against Torulopsis glabrata (TG 15545); type: functional

SMILES | MIC (Aspergillus niger) | MIC (Candida albicans [1]) | MIC (Pichia kudriavzevii) | MIC (Candida albicans [2]) | MIC (Candida albicans [3]) | MIC (Candida albicans [4]) | MIC (Candida albicans [5]) | MIC (Candida albicans [6]) | MIC (Candida tropicalis) | MIC (Nakaseomyces glabratus) | IC50 (Homo sapiens)
CO[C@@H]1C[C@H](C[C@@H](C)[C@@H]2CC(=O)[C@H](C)/C=C(\C)[C@@H](O)[C@@H](OC)C(=O)[C@H](C)C[C@H](C)/C=C/C=C/C=C(\C)[C@@H](N(O)C(N)=O)C[C@@H]3CC[C@@H](C)[C@@](O)(O3)C(=O)C(=O)N3CCCC[C@H]3C(=O)O2)CC[C@H]1O | ~100 µg/mL (≈ 104 µM) | 100 µg/mL (≈ 104 µM) | 3.12 µg/mL (≈ 3.26 µM) | Weak | Weak | 100 µg/mL (≈ 104 µM) | Weak | ~100 µg/mL (≈ 104 µM) | 12.5 µg/mL (≈ 13 µM) | 1.56 µg/mL (≈ 1.63 µM) | 758 nM
CO[C@@H]1C[C@H](C[C@@H](C)[C@@H]2CC(=O)[C@H](C)/C=C(\C)[C@@H](O)[C@@H](OC)C(=O)[C@H](C)C[C@H](C)/C=C/C=C/C=C(\C)[C@@H](N(O)C(=O)OC(C)C)C[C@@H]3CC[C@@H](C)[C@@](O)(O3)C(=O)C(=O)N3CCCC[C@H]3C(=O)O2)CC[C@H]1O | ~100 µg/mL (≈ 99.9 µM) | 6.25 µg/mL (≈ 6.24 µM) | 0.78 µg/mL (≈ 0.779 µM) | Weak | Weak | 12.5 µg/mL (≈ 12.5 µM) | Weak | ~100 µg/mL (≈ 99.9 µM) | 25 µg/mL (≈ 25 µM) | 0.78 µg/mL (≈ 0.779 µM) | 820 nM
CO[C@@H]1C[C@H](C[C@@H](C)[C@@H]2CC(=O)[C@H](C)/C=C(\C)[C@@H](O)[C@@H](OC)C(=O)[C@H](C)C[C@H](C)/C=C/C=C/C=C(\C)[C@@H](N(O)C(=O)N(C)C)C[C@@H]3CC[C@@H](C)[C@@](O)(O3)C(=O)C(=O)N3CCCC[C@H]3C(=O)O2)CC[C@H]1O | ~100 µg/mL (≈ 101 µM) | 100 µg/mL (≈ 101 µM) | – | Weak | Weak | 100 µg/mL (≈ 101 µM) | Weak | ~100 µg/mL (≈ 101 µM) | 50 µg/mL (≈ 50.7 µM) | 3.12 µg/mL (≈ 3.16 µM) | 2030 nM
CO[C@@H]1C[C@H](C[C@@H](C)[C@@H]2CC(=O)[C@H](C)/C=C(\C)[C@@H](O)[C@@H](OC)C(=O)[C@H](C)C[C@H](C)/C=C/C=C/C=C(\C)[C@H](N(O)C(=O)N(C)C)C[C@@H]3CC[C@@H](C)[C@@](O)(O3)C(=O)C(=O)N3CCCC[C@H]3C(=O)O2)CC[C@H]1O | ~100 µg/mL (≈ 101 µM) | 100 µg/mL (≈ 101 µM) | – | Weak | Weak | 100 µg/mL (≈ 101 µM) | Weak | ~100 µg/mL (≈ 101 µM) | 50 µg/mL (≈ 50.7 µM) | 3.12 µg/mL (≈ 3.16 µM) | 2030 nM
CO[C@@H]1C[C@H](C[C@@H](C)[C@@H]2CC(=O)[C@H](C)/C=C(\C)[C@@H](O)[C@@H](OC)C(=O)[C@H](C)C[C@H](C)/C=C/C=C/C=C(\C)[C@@H](N(O)C(=O)N3CCOCC3)C[C@@H]3CC[C@@H](C)[C@@](O)(O3)C(=O)C(=O)N3CCCC[C@H]3C(=O)O2)CC[C@H]1O | ~100 µg/mL (≈ 97.2 µM) | 25 µg/mL (≈ 24.3 µM) | 6.25 µg/mL (≈ 6.08 µM) | Weak | Weak | 50 µg/mL (≈ 48.6 µM) | Weak | ~100 µg/mL (≈ 97.2 µM) | 25 µg/mL (≈ 24.3 µM) | 3.12 µg/mL (≈ 3.03 µM) | 1620 nM
CO[C@@H]1C[C@H](C[C@@H](C)[C@@H]2CC(=O)[C@H](C)/C=C(\C)[C@@H](O)[C@@H](OC)C(=O)[C@H](C)C[C@H](C)/C=C/C=C/C=C(\C)[C@@H](N(OC)C(=O)N(C)C)C[C@@H]3CC[C@@H](C)[C@@](O)(O3)C(=O)C(=O)N3CCCC[C@H]3C(=O)O2)CC[C@H]1O | ~100 µg/mL (≈ 100 µM) | > 100 µg/mL | 3.12 µg/mL (≈ 3.12 µM) | Weak | Weak | > 100 µg/mL | Weak | ~100 µg/mL (≈ 100 µM) | 50 µg/mL (≈ 50 µM) | 3.12 µg/mL (≈ 3.12 µM) | 3610 nM
CCCCOC(=O)N(O)[C@H]1C[C@@H]2CC[C@@H](C)[C@@](O)(O2)C(=O)C(=O)N2CCCC[C@H]2C(=O)O[C@H]([C@H](C)C[C@@H]2CC[C@@H](O)[C@H](OC)C2)CC(=O)[C@H](C)/C=C(\C)[C@@H](O)[C@@H](OC)C(=O)[C@H](C)C[C@H](C)/C=C/C=C/C=C/1C | ~100 µg/mL (≈ 98.5 µM) | 12.5 µg/mL (≈ 12.3 µM) | 1.56 µg/mL (≈ 1.54 µM) | Weak | Weak | 12.5 µg/mL (≈ 12.3 µM) | Weak | ~100 µg/mL (≈ 98.5 µM) | 12.5 µg/mL (≈ 12.3 µM) | 1.56 µg/mL (≈ 1.54 µM) | 523 nM
CO[C@H]1C[C@@H]2CC[C@@H](C)[C@@](O)(O2)C(=O)C(=O)N2CCCC[C@H]2C(=O)O[C@H]([C@H](C)C[C@@H]2CC[C@@H](OC(=O)N(C)C)[C@H](OC)C2)CC(=O)[C@H](C)/C=C(\C)[C@@H](O)[C@@H](OC)C(=O)[C@H](C)C[C@H](C)CCCC/C=C/1C | – | 50 µg/mL (≈ 50.5 µM) | 6.25 µg/mL (≈ 6.32 µM) | – | – | 50 µg/mL (≈ 50.5 µM) | – | – | > 100 µg/mL | – | 485 nM

Now from value to compound, other results behind:

MIC (Aspergillus niger) | MIC (Candida albicans [1]) | MIC (Pichia kudriavzevii) | MIC (Candida albicans [2]) | MIC (Candida albicans [3]) | MIC (Candida albicans [4]) | MIC (Candida albicans [5]) | MIC (Candida albicans [6]) | MIC (Candida tropicalis) | MIC (Nakaseomyces glabratus) | SMILES | IC50 (Homo sapiens)
~100 µg/mL (≈ 99.9 µM) | 6.25 µg/mL (≈ 6.24 µM) | 0.78 µg/mL (≈ 0.779 µM) | Weak | Weak | 12.5 µg/mL (≈ 12.5 µM) | Weak | ~100 µg/mL (≈ 99.9 µM) | 25 µg/mL (≈ 25 µM) | 0.78 µg/mL (≈ 0.779 µM) | CO[C@@H]1C[C@H](C[C@@H](C)[C@@H]2CC(=O)[C@H](C)/C=C(\C)[C@@H](O)[C@@H](OC)C(=O)[C@H](C)C[C@H](C)/C=C/C=C/C=C(\C)[C@H](N(O)C(=O)OC(C)C)C[C@@H]3CC[C@@H](C)[C@@](O)(O3)C(=O)C(=O)N3CCCC[C@H]3C(=O)O2)CC[C@H]1O | 220 nM
~100 µg/mL (≈ 98.5 µM) | 1.56 µg/mL (≈ 1.54 µM) | 0.78 µg/mL (≈ 0.768 µM) | Weak | Weak | 1.56 µg/mL (≈ 1.54 µM) | Weak | ~100 µg/mL (≈ 98.5 µM) | 1.56 µg/mL (≈ 1.54 µM) | 0.78 µg/mL (≈ 0.768 µM) | CCCCOC(=O)N(O)[C@@H]1C[C@@H]2CC[C@@H](C)[C@@](O)(O2)C(=O)C(=O)N2CCCC[C@H]2C(=O)O[C@H]([C@H](C)C[C@@H]2CC[C@@H](O)[C@H](OC)C2)CC(=O)[C@H](C)/C=C(\C)[C@@H](O)[C@@H](OC)C(=O)[C@H](C)C[C@H](C)/C=C/C=C/C=C/1C | 83 nM
~100 µg/mL (≈ 98.5 µM) | 1.56 µg/mL (≈ 1.54 µM) | 0.78 µg/mL (≈ 0.768 µM) | Weak | Weak | 3.12 µg/mL (≈ 3.07 µM) | Weak | ~100 µg/mL (≈ 98.5 µM) | 1.56 µg/mL (≈ 1.54 µM) | 0.78 µg/mL (≈ 0.768 µM) | CO[C@@H]1C[C@H](C[C@@H](C)[C@@H]2CC(=O)[C@H](C)/C=C(\C)[C@@H](O)[C@@H](OC)C(=O)[C@H](C)C[C@H](C)/C=C/C=C/C=C(\C)[C@H](N(O)C(=O)OCC(C)C)C[C@@H]3CC[C@@H](C)[C@@](O)(O3)C(=O)C(=O)N3CCCC[C@H]3C(=O)O2)CC[C@H]1O | 196 nM
~100 µg/mL (≈ 99.9 µM) | 1.56 µg/mL (≈ 1.56 µM) | 0.78 µg/mL (≈ 0.779 µM) | Weak | Weak | 3.12 µg/mL (≈ 3.12 µM) | Weak | ~100 µg/mL (≈ 99.9 µM) | 1.56 µg/mL (≈ 1.56 µM) | 1.56 µg/mL (≈ 1.56 µM) | CCCOC(=O)N(O)[C@@H]1C[C@@H]2CC[C@@H](C)[C@@](O)(O2)C(=O)C(=O)N2CCCC[C@H]2C(=O)O[C@H]([C@H](C)C[C@@H]2CC[C@@H](O)[C@H](OC)C2)CC(=O)[C@H](C)/C=C(\C)[C@@H](O)[C@@H](OC)C(=O)[C@H](C)C[C@H](C)/C=C/C=C/C=C/1C | 288 nM
~100 µg/mL (≈ 97.4 µM) | 1.56 µg/mL (≈ 1.52 µM) | 1.56 µg/mL (≈ 1.52 µM) | Weak | Weak | 1.56 µg/mL (≈ 1.52 µM) | Weak | ~100 µg/mL (≈ 97.4 µM) | 6.25 µg/mL (≈ 6.09 µM) | 1.56 µg/mL (≈ 1.52 µM) | CO[C@@H]1C[C@H](C[C@@H](C)[C@@H]2CC(=O)[C@H](C)/C=C(\C)[C@@H](O)[C@@H](OC)C(=O)[C@H](C)C[C@H](C)/C=C/C=C/C=C(\C)[C@H](N(O)C(=O)N3CCCCC3)C[C@@H]3CC[C@@H](C)[C@@](O)(O3)C(=O)C(=O)N3CCCC[C@H]3C(=O)O2)CC[C@H]1O | 786 nM
~100 µg/mL (≈ 102 µM) | 3.12 µg/mL (≈ 3.18 µM) | 1.56 µg/mL (≈ 1.59 µM) | Weak | Weak | 12.5 µg/mL (≈ 12.8 µM) | Weak | ~100 µg/mL (≈ 102 µM) | 1.56 µg/mL (≈ 1.59 µM) | 0.78 µg/mL (≈ 0.796 µM) | CO[C@@H]1C[C@H](C[C@@H](C)[C@@H]2CC(=O)[C@H](C)/C=C(\C)[C@@H](O)[C@@H](OC)C(=O)[C@H](C)C[C@H](C)/C=C/C=C/C=C(\C)[C@H](c3ccc(C)s3)C[C@@H]3CC[C@@H](C)[C@@](O)(O3)C(=O)C(=O)N3CCCC[C@H]3C(=O)O2)CC[C@H]1O | 221 nM
– | 3.12 µg/mL (≈ 3.15 µM) | 1.56 µg/mL (≈ 1.57 µM) | – | – | 3.12 µg/mL (≈ 3.15 µM) | – | – | 3.12 µg/mL (≈ 3.15 µM) | – | CO[C@H]1C[C@@H]2CC[C@@H](C)[C@@](O)(O2)C(=O)C(=O)N2CCCC[C@H]2C(=O)O[C@H]([C@H](C)C[C@@H]2CC[C@@H](OC(=O)N(C)O)[C@H](OC)C2)CC(=O)[C@H](C)/C=C(\C)[C@@H](O)[C@@H](OC)C(=O)[C@H](C)C[C@H](C)CCCC/C=C/1C | 434 nM
~100 µg/mL (≈ 98.5 µM) | 3.12 µg/mL (≈ 3.07 µM) | 0.78 µg/mL (≈ 0.768 µM) | Weak | Weak | 12.5 µg/mL (≈ 12.3 µM) | Weak | ~100 µg/mL (≈ 98.5 µM) | 3.12 µg/mL (≈ 3.07 µM) | 0.78 µg/mL (≈ 0.768 µM) | CO[C@@H]1C[C@H](C[C@@H](C)[C@@H]2CC(=O)[C@H](C)/C=C(\C)[C@@H](O)[C@@H](OC)C(=O)[C@H](C)C[C@H](C)/C=C/C=C/C=C(\C)[C@@H](N(O)C(=O)OCC(C)C)C[C@@H]3CC[C@@H](C)[C@@](O)(O3)C(=O)C(=O)N3CCCC[C@H]3C(=O)O2)CC[C@H]1O | 760 nM
